Test results from US8952042B2, “FXR (NR1H4) binding and activity modulating compounds” (Phenex Pharmaceuticals AG, priority 2009, dated 2015).
pEC50: −log10 of the molar value.

Columns and labels:
[1] = target: T1, FXR ligand binding domain (Homo sapiens, UniProt Q96RI1); experiment: Mammalian One Hybrid (M1H) Gal4 reporter assay in HEK293 cells; type: cell-based; conditions: potency range
T1 construct: expressed in transfected cells; host or cells: HEK293 cells (DSMZ), transient transfection of pCMV-BD-FXR-LBD
T1 sequence (Q96RI1 187-472 isoform Q96RI1-2): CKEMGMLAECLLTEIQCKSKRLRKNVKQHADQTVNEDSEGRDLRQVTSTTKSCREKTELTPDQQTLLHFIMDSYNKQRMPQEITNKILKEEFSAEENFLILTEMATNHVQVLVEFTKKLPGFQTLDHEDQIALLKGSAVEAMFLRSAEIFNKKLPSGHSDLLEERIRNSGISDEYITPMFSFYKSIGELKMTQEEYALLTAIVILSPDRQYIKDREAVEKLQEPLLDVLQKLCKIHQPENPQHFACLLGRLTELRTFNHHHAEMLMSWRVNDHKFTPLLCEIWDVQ
Procedure: Determination of a ligand mediated Gal4 promoter driven transactivation to quantify ligand binding mediated activation of FXR was performed as follows: The cDNA part encoding the FXR ligand binding domain was cloned into vector pCMV-BD (Stratagene) as a fusion to the yeast GAL4 DNA binding domain under the control of the CMV promoter. The amino acid boundaries of the ligand binding domain were amino acids 187-472 of Database entry NM_005123 (RefSeq). The plasmid pFR-Luc (Stratagene) was used as the reporter plasmid, containing a synthetic promoter with five tandem repeats of the yeast GAL4 binding sites, driving the expression of the Photinus pyralis (American firefly) luciferase gene as the reporter gene. In order to improve experimental accuracy the plasmid pRL-CMV (Promega) was cotransfected. pRL-CMV contains the constitutive CMV promoter, controlling the expression of the Renilla reniformis luciferase. All Gal4 reporter gene assays were done in HEK293 cells (obtained from DSMZ, Braunschweig, Germany) grown in MEM with L-Glutamine and Earle's BSS supplemented with 10% fetal bovine serum, 0.1 mM nonessential amino acids, 1 mM sodium pyruvate, and 100 units Penicillin/[…] per mL at 37° C. in 5% CO2. Medium and supplements were obtained from Invitrogen. For the assay, […] were plated per well in 96 well plates in 100 μL per well MEM without Phenol Red and L-Glutamine and with Earle's BSS supplemented with 10% charcoal/dextran treated FBS (HyClone, South Logan, Utah), 0.1 mM nonessential amino acids, 2 mM glutamine, 1 mM sodium pyruvate, and 100 units Penicillin/[…] per mL, incubated at 37° C. in 5% CO2. The following day the cells were >90% confluence. Medium was removed and cells were transiently transfected using 20 μL per well of a OptiMEM—polyethylene-imine-based transfection-reagent (OptiMEM, Invitrogen; Polyethyleneimine, Aldrich Cat No. 40, 827-7) including the three plasmids described above. MEM with the same composition as used for plating cells was added 2-4 h after addition of transfection mixture. Then compound stocks, prediluted in MEM were added (final vehicle concentration not exceeding 0.1%). Cells were incubated for additional 16 h before firefly and renilla luciferase activities were measured sequentially in the same cell extract using a Dual-Light-Luciferase-Assay system (Dyer et al., Anal. Biochem. 2000, 282, 158-161). All experiments were done in triplicates.

[2] = Pharmacokinetics in rat after intravenous administration 1 mg/kg; type: in vivo, Male Sprague Dawley Rat; conditions: for plasma levels as compared to GW4064: Male Sprague Dawley Rat, Table 3; for AUC(0-inf) / MRT last / Tmax / Vd / half-life / concentration at 0.083 hr / concentration at 0.25 hr / concentration at 0.5 hr / concentration at 1 hr / concentration at 2 hr / concentration at 4 hr / Cmax / AUC(0-t): male, Sprague Dawley, plasma; for AUC(0-inf) / MRT last / Tmax / Vd / half-life / concentration at 0.083 hr / concentration at 0.25 hr / concentration at 0.5 hr / concentration at 1 hr / concentration at 2 hr / concentration at 4 hr / AUC(0-t): iv; for AUC(0-inf) / MRT last / Tmax / Vd / half-life / concentration at 0.083 hr / concentration at 0.25 hr / concentration at 0.5 hr / concentration at 1 hr / concentration at 2 hr / concentration at 4 hr / Cmax / AUC(0-t) / AUC Extrapolated / CI: rat; for AUC(0-inf) / MRT last / Tmax / Vd / half-life / concentration at 0.083 hr / concentration at 0.25 hr / concentration at 0.5 hr / concentration at 1 hr / concentration at 2 hr / concentration at 4 hr / Cmax / AUC Extrapolated / CI: 1 mg/kg i.v.; for concentration at 0.5 hr: 0.50 hr; for Cmax: footnote: Co for Intravenous; for AUC(0-t): 1 mg/kg, read-out: #AUC(0-8)
Procedure: (§1) Compounds were applied perorally by gavage at 5 mg/kg each and by i.v. Injection at 1 mg/kg each to male 12 weeks old C57BI/6J or Sprague Dawley rats and plasma concentrations of the test items were determined by LC-MS/MS after time points as indicated. In the case of Cynomolgus monkeys ([…]), the dose was adjusted to 12 mg/kg p.o., no i.v. injection was given (FIG. 1a, 1b and Table 2).
(§2) A solution of 2.5 mg/mL of each test item was produced by diluting them in the vehicle, 0.5% Hydroxypropyl-Methylcellulose (w/v) in 20 mM phosphate buffered saline pH 7.4. The solutions were stirred overnight at room temperature and heated to 40° C. for 10 minutes, resulting in fully homogenous suspension. The application was performed by administrating the solution perorally to the mice, with an application volume of 5 mL/kg. For each time point three mice or rats were used. In case of the Cynomolgus monkeys blood samples were obtained by repeated vein puncture. Blood samples were treated with L1-heparin during collection procedure and stored on ice until centrifugation at 645 g (5 min, 4° C.). Plasma was harvested and kept at −20° C. until being assayed. To 50 μL of plasma sample 6 μL acetonitrile containing an internal standard was added. Samples were vigorously shaken and centrifuged for 10 minutes at 6000 g and 20° C. An aliquot of the particle-free supernatant was transferred to 200 μL sampler vials and subsequently subjected to LC MS/MS for quantification.

[3] = Pharmacokinetics in rat after oral administration 5 mg/kg; type: in vivo, Male Sprague Dawley Rat; conditions: for AUC(0-inf) / Cmax / MRT last / Tmax / half-life / bioavailability / AUC(0-t): male, Sprague Dawley, plasma; for AUC(0-inf) / Cmax / MRT last / Tmax / half-life / AUC(0-t) / AUC Extrapolated / CI / Vd: oral 5 mg/kg; for bioavailability: oral 5 mg/kg vs i.v. 1 mg/kg, read-out: Absolute Bioavailability; for AUC(0-t): read-out: AUC(0-8)
Procedure: as §1, §2

[4] = Pharmacokinetics in monkeys after oral administration 12 mg/kg; type: in vivo, Cynomolgus monkeys (Macacca mulatta); conditions: oral 12 mg/kg, Avg; for AUC(0-inf) / AUC(0-t) / Cmax / Tmax / half-life / MRT last / Vd/F: Cynomolgus, cynomolgus monkey, plasma; for MRT last: read-out: MRT0-t (converted); for Vd/F: read-out: Vz/F
Procedure: as §1, §2

[5] = Plasma levels in mice after single dose gavage 5 mg/kg; type: in vivo; conditions: C57/bl6 mice, FIG. 1c, 5 mg/kg gavage
Procedure: Data represent the mean of 3 individual mouse plasma measurements.
as §1
as §2, with “To 50 μL of plasma sample 6 μL acetonitrile containing an internal standard was added. Samples were vigorously shaken and centrifuged for 10 minutes at 6000 g and 20° C.” left out

Row | pEC50 [1] | plasma levels as compared to GW4064 [2] | AUC(0-inf) [2] [ng·h/mL] | MRT last [2] [h] | Tmax [2] [min] | Vd [2] [L/kg] | half-life [2] [h] | concentration at 0.083 hr [2] [ng/mL] | concentration at 0.25 hr [2] [ng/mL] | concentration at 0.5 hr [2] [ng/mL] | concentration at 1 hr [2] [ng/mL] | concentration at 2 hr [2] [ng/mL] | concentration at 4 hr [2] [ng/mL] | Cmax [2] [ng/mL] | AUC(0-t) [2] [ng·h/mL] | AUC Extrapolated [2] [%] | CI [2] [mL/min/kg] | AUC(0-inf) [3] [ng·h/mL] | Cmax [3] [ng/mL] | MRT last [3] [h] | SMILES | also measured
1 | 7.00 to 8.00 | substantially higher | 923 | 0.83 | 4.98 | 1.79 | 1.14 | 1190 | 749 | 451 | 202 | 78.9 | 44.5 | 1500 | 850 | 7.94 | 18.0508 | 406 | 93.1 | 2.97 | O=C(O)c1cccc(C2CC2c2ccc(OCc3c(-c4c(Cl)cccc4Cl)noc3C3CC3)cc2Cl)c1 (racemic) [Example 4, 3-(2-(2-chloro-4-((5-cyclopropyl-3-(2,6-dichlorophenyl)isoxazol-4-yl)methoxy)phenyl)-cyclopropyl)benzoic acid] | Tmax [3]: 0.5 h; half-life [3]: 4.08 h; bioavailability [3]: 8.8%; AUC(0-t) [3]: 287 ng·h/mL; AUC Extrapolated [3]: 33.93%; CI [3]: 205.0343 mL/min/kg; Vd [3]: 72.49139 L/kg; AUC(0-inf) [4]: 30700 ng·h/mL; AUC(0-t) [4]: 30500 ng·h/mL; Cmax [4]: 7340 ng/mL; Tmax [4]: 1.42 h; half-life [4]: 2.92 h; MRT last [4]: 4.31 h; Vd/F [4]: 1.93 L/kg; CLz/F [4]: 7 mL/min/kg; plasma levels as compared to GW4064 [5]: substantially higher
2 | 7.00 to 8.00 | substantially higher | 440 | 0.78 | 4.98 | 4.82 | 1.47 | 661 | 359 | 174 | 84.6 | 37.7 | 19.2 | 895 | 399 | 9.28 | 37.8772 | 681 | 210 | 2.42 | O=C(O)c1ccc(C2CC2c2ccc(OCc3c(-c4c(Cl)cccc4Cl)noc3C3CC3)cc2Cl)cc1 (racemic) [Example 12, 4-(2-(2-chloro-4-((5-cyclopropyl-3-(2,6-dichlorophenyl)isoxazol-4-yl)methoxy)phenyl)cyclopropyl)benzoic acid] | Tmax [3]: 0.5 h; half-life [3]: 2.78 h; bioavailability [3]: 30.9%; AUC(0-t) [3]: 570 ng·h/mL; AUC Extrapolated [3]: 16.32%; CI [3]: 122.39 mL/min/kg; Vd [3]: 29.44442 L/kg; AUC(0-inf) [4]: 15100 ng·h/mL; AUC(0-t) [4]: 14500 ng·h/mL; Cmax [4]: 2220 ng/mL; Tmax [4]: 2.92 h; half-life [4]: 4.54 h; MRT last [4]: 6.11 h; Vd/F [4]: 5.19 L/kg; CLz/F [4]: 13 mL/min/kg; plasma levels as compared to GW4064 [5]: substantially higher
